Assay results reported in publication PMC7726444 (Frontiers in Pharmacology, 2020).
pIC50: −log10 of the molar value.

Legend:
[1] = molecular target: T1, MAO-A (Homo sapiens, UniProt P21397); assay: MAO-A enzymatic activity assay (MAO-A Inhibitor Screening Kit, fluorimetric detection of H2O2); assay type: biochemical; details: 25°C, 15 min kinetic read; mean (95% confidence interval), three experiments
T1 construct: purchased BioVision, Inc, Milpitas, CA
T1 sequence (P21397 1-527): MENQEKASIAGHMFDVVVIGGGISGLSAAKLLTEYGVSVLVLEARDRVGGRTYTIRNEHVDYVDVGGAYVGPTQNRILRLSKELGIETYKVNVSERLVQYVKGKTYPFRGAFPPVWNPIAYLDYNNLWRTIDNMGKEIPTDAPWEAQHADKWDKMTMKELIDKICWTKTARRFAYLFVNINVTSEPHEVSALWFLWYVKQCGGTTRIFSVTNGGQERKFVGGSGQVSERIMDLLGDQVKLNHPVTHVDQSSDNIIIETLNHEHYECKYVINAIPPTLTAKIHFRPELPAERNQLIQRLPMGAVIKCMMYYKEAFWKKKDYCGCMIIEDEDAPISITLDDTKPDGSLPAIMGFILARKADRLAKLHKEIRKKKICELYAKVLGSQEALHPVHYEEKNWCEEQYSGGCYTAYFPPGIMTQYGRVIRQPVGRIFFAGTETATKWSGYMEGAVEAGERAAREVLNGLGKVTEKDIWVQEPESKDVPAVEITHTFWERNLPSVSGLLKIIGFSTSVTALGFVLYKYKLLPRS
Experimental: The experiments were conducted following the manufacturer’s (BioVision, Inc, Milpitas, CA) instructions and were based on the fluorimetric detection of H2O2, a byproduct of the enzymatic activity of MAO-A, by measuring the fluorescence (Excitation/Emission at 535/587 nm) kinetically at 25°C for 15 min using a Tecan Spark plate reader (Tecan Group Ltd, Männedorf, Switzerland).
Relative inhibition of MAO-A was calculated as a percentage using the following Eq. 2: %Relative inhibition=((Slope of EC−Slope of S)/Slope of EC)×100 (2)
The slopes for all samples, either containing Enzyme Control (EC) or test substance (S), were calculated by dividing the net change in relative fluorescence units (ΔRFU; RFU2–RFU1) by the time interval (Δt; t2 –t1).

[2] = test system: CD-1 mice; assay: Tail suspension test; assay type: in vivo, mouse; details: 100 mg/kg i.p. once daily for 4 days, test 20 h after last dose, 6 min trial; p = 0.028, Mann-Whitney test
Description: Male CD-1 mice (Janvier Labs, Le Genest-St-Isle, France), 3 months of age were used. The animals in the different treatment groups were matched for age. The University of Barcelona’s Committee on Animal Use and Care approved the protocol. Animals were housed and tested in compliance with the guidelines described in the Guide for the Care and Use of Laboratory Animals ([Clark et al., 1997]) and following the European Union directives (2010/63/EU), FELASA and ARRIVE guidelines. All efforts were made to minimize animal suffering and the number of animals used. All animals were housed in groups of five in standard cages with ad libitum access to food and water and maintained under a 12-h dark/light cycle (starting at 7:30 AM), 22°C temperature, and 66% humidity. […] While all treated animals were tested in the tail suspension test, brain tissue from eight of the vehicle-treated and nine of the omeprazole-treated mice was used for subsequent analysis of 5-HT content. Serum samples for 5-HT analysis were drawn from another nine vehicle-treated and eight omeprazole-treated mice.
Immobility time in the tail suspension test is known to be sensitive to manipulations that alter brain 5-HT content ([Garcia-Miralles et al., 2016]; [Palucha-Poniewiera et al., 2017]). […] Each animal was suspended for 6 min and the time spent immobile during suspension was counted using a stopwatch. […]

COc1ccc2[nH]c([S+]([O-])Cc3ncc(C)c(OC)c3C)nc2c1 (centres unmarked) [Omeprazole]
pIC50 [1]: 4.05 | time spent immobile in tail suspension test vs vehicle [2]: significantly less time immobile
